Measurements published in US20240254111A1, “SUBSTITUTED BENZAMIDES AS HERBICIDES” (SYNGENTA CROP PROTECTION AG, priority 2021, published 2024).

Key:
Assay type in all cases: in vivo
[1] = test system: Euphorbia heterophylla (EPHHIL); assay: Glasshouse herbicide test, Table B1; conditions: POST Application, evaluated after 14 days
[2] = test system: Oryza sativa (ORYSA, Rice); assay: Glasshouse herbicide test, Table B1 (crop damage); conditions: POST Application, evaluated after 14 days
[3] = test system: Amaranthus retoflexus (AMARE); assay: Glasshouse pre-/post-emergence herbicide test, Table B2; conditions: 130 g/h, evaluated after 13 days
Procedure: (§1) Seeds of a variety of test species are sown in standard soil in pots Amaranthus retoflexus (AMARE), Setaria faberi (SETFA), Echinochloa crus-galli (ECHCG), Ipomoea hederacea (IPOHE)). After cultivation for one day (pre-emergence) or after 8 days cultivation (post-emergence) under controlled conditions in a glasshouse (at 24/16° C., day/night; 14 hours light; 65% humidity), the plants are sprayed with an aqueous spray solution derived from the formulation of the technical active ingredient in acetone/water (50:50) solution containing 0.5% Tween 20 (polyoxyethelyene sorbitan monolaurate, CAS RN 9005-64-5). Compounds are applied at 130 g/h unless otherwise indicated. The test plants are then grown in a glasshouse under controlled conditions in a glasshouse (at 24/16° C., day/night; 14 hours light; 65% humidity) and watered twice daily. After 13 days for pre and post-emergence, the test is evaluated for the percentage damage caused to the plant. The biological activities are shown in the following table on a five-point scale (5=80-100%; 4=60-79%; 3=40-59%; 2=20-39%; 1=0-19%).

[4] = test system: Ipomoea hederacea (IPOHE); assay: as above; conditions: 130 g/h, evaluated after 13 days
Procedure: as §1

[5] = test system: Setaria faberi (SETFA); assay: as above; conditions: 130 g/h, evaluated after 13 days
Procedure: as §1

[6] = test system: Echinochloa crus-galli (ECHCG); assay: as above; conditions: 130 g/h, evaluated after 13 days
Procedure: as §1

[7] = test system: Panicum miliaceum (PANMVI); assay: Glasshouse herbicide test, Table B1; conditions: POST Application, evaluated after 14 days
[8] = test system: Sinapis arvensis (SINAR); assay: Glasshouse herbicide test, Table B1; conditions: POST Application, evaluated after 14 days

| Structure (SMILES) | EPHHL damage to plant (100=total damage; 0=no damage) ([1]; rate 30 g/ha) | EPHHL damage to plant (100=total damage; 0=no damage) ([1]; rate 130 g/ha) | EPHHL damage to plant (100=total damage; 0=no damage) ([1]; rate 250 g/ha) | ORYSA damage to plant (100=total damage; 0=no damage) ([2]; rate 30 g/ha) | ORYSA damage to plant (100=total damage; 0=no damage) ([2]; rate 130 g/ha) | ORYSA damage to plant (100=total damage; 0=no damage) ([2]; rate 250 g/ha) | AMARE percentage damage, five-point scale ([3]; POST Application) | AMARE percentage damage, five-point scale ([3]; PRE Application) | IPOHE percentage damage, five-point scale ([4]; POST Application) | IPOHE percentage damage, five-point scale ([4]; PRE Application) | SETFA percentage damage, five-point scale ([5]; POST Application) | SETFA percentage damage, five-point scale ([5]; PRE Application) | ECHCG percentage damage, five-point scale ([6]; POST Application) | ECHCG percentage damage, five-point scale ([6]; PRE Application) | PANMI damage to plant (100=total damage; 0=no damage) ([7]; rate 30 g/ha) | PANMI damage to plant (100=total damage; 0=no damage) ([7]; rate 130 g/ha) | PANMI damage to plant (100=total damage; 0=no damage) ([7]; rate 250 g/ha) | SINAR damage to plant (100=total damage; 0=no damage) ([8]; rate 30 g/ha) | SINAR damage to plant (100=total damage; 0=no damage) ([8]; rate 130 g/ha) | SINAR damage to plant (100=total damage; 0=no damage) ([8]; rate 250 g/ha) |
| --- | --- | --- | --- | --- | --- | --- | --- | --- | --- | --- | --- | --- | --- | --- | --- | --- | --- | --- | --- | --- |
| Cn1nnnc1NC(=O)c1ccc(OC(F)(F)F)c(NC(=O)C2CCOCC2)c1Cl [Compound 1.001, N-[2-chloro-3-[(1-methyltetrazol-5-yl)carbamoyl]-6-(trifluoromethoxy)phenyl]-tetrahydropyran-4-carboxamide] | 100 | 100 | 100 | 0 | 0 | 0 | 5 (5=80-100%) | 5 (5=80-100%) | 5 (5=80-100%) | 4 (4=60-79%) | 5 (5=80-100%) | 5 (5=80-100%) | 5 (5=80-100%) | 5 (5=80-100%) | 90 | 100 | 100 | 100 | 100 | 100 |
| Cn1nnnc1NC(=O)c1ccc(OC(F)F)c(NC(=O)C2CCOCC2)c1Cl [Compound 1.002, N-[2-chloro-6-(difluoromethoxy)-3-[(1-methyltetrazol-5-yl)carbamoyl]phenyl]tetrahydropyran-4-carboxamide] | 90 | 100 | 100 | 0 | 10 | 20 | 5 (5=80-100%) | 5 (5=80-100%) | 4 (4=60-79%) | 5 (5=80-100%) | 5 (5=80-100%) | 5 (5=80-100%) | 5 (5=80-100%) | 5 (5=80-100%) | 90 | 100 | 100 | 90 | 100 | 100 |
| Cn1nnnc1NC(=O)c1ccc(OC(F)(F)F)c(NC(=O)C2(C)CCOCC2)c1Cl [Compound 1.007] |  |  |  |  |  |  | 5 (5=80-100%) | 5 (5=80-100%) |  | 3 (3=40-59%) | 5 (5=80-100%) | 1 (1=0-19%) | 5 (5=80-100%) | 2 (2=20-39%) |  |  |  |  |  |  |
| Cn1nnnc1NC(=O)c1ccc(OC(F)F)c(NC(=O)C2(C)CCOCC2)c1Cl [Compound 1.009] |  |  |  |  |  |  | 5 (5=80-100%) | 5 (5=80-100%) | 4 (4=60-79%) | 2 (2=20-39%) | 2 (2=20-39%) | 1 (1=0-19%) | 4 (4=60-79%) | 1 (1=0-19%) |  |  |  |  |  |  |
| Cc1c(C(=O)Nc2nnnn2C)ccc(OC(F)(F)F)c1NC(=O)C1CCOCC1 [Compound 1.010] |  |  |  |  |  |  | 4 (4=60-79%) | 5 (5=80-100%) | 4 (4=60-79%) | 2 (2=20-39%) | 5 (5=80-100%) | 2 (2=20-39%) | 5 (5=80-100%) | 3 (3=40-59%) |  |  |  |  |  |  |
| CCn1nnnc1NC(=O)c1ccc(OC(F)(F)F)c(NC(=O)C2CCOCC2)c1Cl [Compound 1.011] |  |  |  |  |  |  | 5 (5=80-100%) | 5 (5=80-100%) | 5 (5=80-100%) | 5 (5=80-100%) | 5 (5=80-100%) | 5 (5=80-100%) | 5 (5=80-100%) | 5 (5=80-100%) |  |  |  |  |  |  |
| CCn1nnnc1NC(=O)c1ccc(OC(F)F)c(NC(=O)C2CCOCC2)c1Cl [Compound 1.012] |  |  |  |  |  |  | 5 (5=80-100%) | 4 (4=60-79%) | 4 (4=60-79%) | 4 (4=60-79%) | 5 (5=80-100%) | 3 (3=40-59%) | 5 (5=80-100%) | 5 (5=80-100%) |  |  |  |  |  |  |
